Laboratory results: patent EP0336417A2, “Phosphonate initiators for light cured compositions” (DENTSPLY INTERNATIONAL, INC., priority 1988, dated 1989)

Experiment: Solubility of initiator in NCO/TEGDMA resin
Format: physicochemical
Conditions: not soluble above about 2%; percentages by weight
Text: NCO/TEGDMA is a resin blend described in copending SN 040, 636 and used as illustrated in U.S. patent 4,514,174 and comprises a blend of NCO, the reaction product of hexamethylene diisocyanate (HMDI) and Bis-GMA [drawing 4] , and triethyleneglycol dimethacrylate (TEGDMA). At concentrations above about 2%, the benzoyl di (2,6 dimethylphenyl) phosphonate is not soluble in NCO/-TEGDMA resin. When used with an NCO/-TEGDMA resin in concentrations up to about 2%, however, the resin can be cured to a clear, hard film.

SMILES: Cc1cccc(C)c1OP(=O)(Oc1c(C)cccc1C)C(=O)c1ccccc1 [Benzoyl di-(2,6-dimethylphenyl) phosphonate]
- concentration up to which soluble in NCO/TEGDMA resin: about 2%
